The record followed here is paper PMC4742130 (2015).

As usually defined, the KD is the concentration at which binding is half-saturated. A higher KD goes with a looser complex.

For assay [1], the system named is HTG22 (DNA, G4) AGGGTTAGGGTTAGGGTTAGGG
Description: SPR, Langmuir kinetic fit. The conditions noted are these: 100 mM KCl; 50 mM Tris-HCl, pH 7.4, 25 °C; highest concentration 20 μM. In general terms: Surface plasmon resonance follows binding to a sensor surface in real time, without labels.

Assay [2] relates to F21T (DNA, G4) GGGTTAGGGTTAGGGTTAGGG
Description: FRET melting. The conditions noted are these: 60 mM KCl; 10 mM Tris-HCl, pH 7.4; 0.2 μM DNA; 1 μM compound (Figure S2A).

For assay [3], the system named is HTG21 (DNA, G4) GGGTTAGGGTTAGGGTTAGGG
Description: CD titration. The conditions noted are these: no added K+ or Na+; 10 mM Tris-HCl, pH 7.4, 25 °C; 5 μM DNA; 0 to 5 mol equiv; induces antiparallel G4.

The subject of assay [4] is hairpin duplex DNA (DNA, hairpin) TTTTTTTTTCGAATTCGTTTTTCGAATTCG
Description: SPR, Langmuir kinetic fit. The conditions noted are these: 100 mM KCl; 50 mM Tris-HCl, pH 7.4, 25 °C; highest concentration 20 μM.

In assay [1], `COc1ccc2cc3[n+](cc2c1NCCCN1CCCC1)CCc1cc2c(cc1-3)OCO2` displayed a KD of 29 µM. This lies in the double-digit micromolar range.

As for `COc1ccc2cc3[n+](cc2c1NCCCN1CCCCC1)CCc1cc2c(cc1-3)OCO2`, the KD in assay [1] was found to be 149 µM. This KD is about 5.1-fold higher than that of the compound before. The same measure, in the same setting: the same measure for `COc1ccc2cc3[n+](cc2c1NCCN1CCCCC1)CCc1cc2c(cc1-3)OCO2`: 10.8 µM; for `COc1ccc2cc3[n+](cc2c1NCCO)CCc1cc2c(cc1-3)OCO2`: 680 µM. As for `COc1ccc2cc3[n+](cc2c1OC)CCc1cc2c(cc1-3)OCO2`, the binding entry in assay [2] is given as “weak”. The compound further displayed a KD in assay [1] of 170 µM. Turning to `COc1ccc2cc3[n+](cc2c1OCCCCCCCl)CCc1cc2c(cc1-3)OCO2`, the binding entry in assay [3] and in assay [1] was “yes” each time. On to `COc1ccc2cc3[n+](cc2c1OCCCNC(=O)C(N)CCCCN)CCc1cc2c(cc1-3)OCO2` (stereo not shown), for which the KD is 0.0289 mol/L in assay [4] and 7.57 µM in assay [1].

Turning to `COc1ccc2cc3[n+](cc2c1OCCCNC(=O)C(N)CCCNC(=N)N)CCc1cc2c(cc1-3)OCO2` (stereo not shown), the KD in assay [4] came to 0.0139 mol/L; in assay [1], 10.5 µM. As to `COc1ccc2cc3[n+](cc2c1OCCN)CCc1cc2c(cc1-3)OCO2`, the KD in assay [1] stood at 133 µM.
